# Assay results reported in patent US20210100905A1, “APPLICATION OF COMPOUND OR TRADITIONAL CHINESE MEDICINE EXTRACT IN PREPARATION OF NUCLEIC ACID DELIVERY AGENT, AND RELATED PRODUCTS” (INSTITUTE OF BASIC MEDICAL SCIENCES CHINESE ACADEMY OF …, priority 2018, published 2021).
# “Also recorded” adds a separate entry of the source.
# Assays:
# [1] = test system: A549 cell (human lung adenocarcinoma cell); test: In vitro delivery of lipid nucleic acid mixture, RT-qPCR of intracellular small RNA; type: cell-based; conditions: for abundance of sRNA of different sequences in the cells (Taqman probe): FIG. 11A-C, sRNA 200 nM, 3 hours, compared with the control; for delivery of HJT-sRNA-m7 double-stranded RNA into A549 cells (real-time PCR): single lipid prepared by boiling or reverse evaporation method, RNA 100 nM, FIGS. 76, 91, 96, 99, 104, 106, 107; for delivery of HJT-sRNA-m7 single-stranded RNA into A549 cells (real-time PCR): single lipid, FIGS. 78, 92, 103; for delivery effect relative to that of RNAiMAX (real-time PCR): double-stranded HJT-sRNA-m7
# Procedure: 3.1 NCI-N87 cell (gastric cancer cell), MRC-5 cell (lung fibroblast), A549 cell (lung cancer cell) were cultured to logarithmic growth phase, and then plated to a six-well plate at cell density of 1×10^6/2 mL medium/well; MRC-5 cell was cultured in Eagle's MEM medium (MEM, Gibco); A549 cell was cultured in Ham's F-12 medium (HyClone); NCI-N87 cell was cultured in RPMI-1640 medium (HyClone); followed by incubation overnight at 37° C., and the follow-up experiments were performed after the cells were attached to the walls.
# 3.3 After co-incubation with the small RNA for 3 hours, the cells were washed 2-3 times with PBS. The cells were harvested with TRIzol lysis buffer, and the total RNA was extracted. The abundance of small RNA that entered cells was detected by RT-qPCR, and the localization of RNA was detected by fluorescence in situ hybridization; protocols of each detection method were as follows:
# 1) The sRNA was reverse transcribed to cDNA: Reverse Transcription Kit (High-Capacity cDNA Reverse Transcription Kits, Applied Biosystems, cat. No. 4368813) was used to reverse transcribe sRNA into cDNA by stem-loop method, and the reverse transcription system was as follows: RNA template (150 ng/μl) 10 μl, 10×RT buffer, 2.0 μl, 25× dNTP Mix (100 mM) 0.8 μl, U6 RT stem-loop primer 2.0 μl, HJT-sRNA-RT-m7 stem-loop primer 2.0 μl, MultiScribe™ reverse transcriptase 1.0 μl, RNase inhibitor 1.0 μl, nuclease-free H2O 1.2 μl, loaded into a PCR reactor after brief centrifugation, the reaction conditions were as follows: (1) 25° C., 10 min; (2) 37° C., 120 min; (3) 85° C., 5 min; (4) 4° C., termination of the reaction. 20 μl RNase-free ddH2O was added to make up the final volume to 40 μl after the reaction. The stem-loop primer used in the reverse transcription process was synthesized by Beijing Tsingke Biotechnology Co., Ltd.
# 2) Quantitative PCR amplification reaction: the qPCR reaction system has a total volume of 10 μl, containing: 5 μL 2×SYBR Green Master Mix, 0.5 μl forward primer ([…]), 0.5 μl reverse primer (10 μM), 1 μl cDNA by reverse transcription, 3 RNase-free dH2O. LightCycler 480 fluorescence quantitative PCR instrument was used, and the PCR reaction conditions were: 95° C. for 5 min for pre-denaturation, followed by PCR amplification cycle: (1) 95° C., 10 s; (2) 55° C., 10 s; (3) 72° C. , 20 s; a total of 40 cycles; 40° C. for 10 s in the end to cool down. Both the forward and reverse primers of the amplification reaction were designed and synthesized by Beijing Tsingke Biotechnology Co., Ltd.
# 3) The relative expression level was calculated by 2-ΔCt method.
# 100 μl lipid in diethyl ether solution was prepared, and grouped according to the lipid numbers shown in Table 1 (the lipid concentrations are shown in the table below). To the lipid solution was added 20 μl nucleic acid solution (HJT sRNA or siRNA) at the volume ratio of 5:1, and sonicated for after 3 min. The diethyl ether was removed by evaporation at 55° C., and then 100 μl DEPC water was added for hydration to give nucleic acid lipid mixture.
# 100 μL of the nucleic acid solution (HJT sRNA or siRNA) was added to 2-5 μL of the lipid in chloroform (the concentration was shown in Table 1), mixed, and heated at 80-100° C. for 15-30 min to give nucleic acid lipid mixture.
# 3.1.1 MRC-5 cell (pulmonary embryonic fibroblast), A549 cell (human lung adenocarcinoma cell), Caco-2 cell (human colon adenocarcinoma cell) (purchased from the Cell Resource Center of the Institute of Basic Medical Sciences, Chinese Academy of Medical Sciences) were cultured to logarithmic growth phase, then plated into 12-well plates at a cell density of 6×10^5/1 mL medium/well; MRC-5 and Caco-2 cells were cultured in Eagle's MEM medium (MEM, Gibco); A549 cells were cultured in Ham's F-12 medium (HyClone); followed by incubation overnight at 37° C., and the follow-up experiments were performed after the cells were attached to the walls. […]
# A549 cells = test: Digital PCR (ddPCR) detection of the efficiency of nucleic acid delivery by lipid; type: cell-based, human; conditions: boiling or reverse evaporation method; samples after 6 hours (No. 39: reverse evaporation, 6 and 12 hours)
# Source text: 2.1 Experimental materials: A549 cells were purchased from the Cell Center of the Institute of Basic Medical Sciences, Chinese Academy of Medical Sciences, TRIzol lysis buffer was purchased from Sigma, High capacity cRNA Reverse Transcription Kit was purchased from ABI, USA, and the digital PCR related reagents were purchased from Bio-Rad USA.
# (§1) 2.2 Experimental method: the total cellular RNA was collected and extracted by TRIzol lysis buffer according to the above methods, and reverse transcribed to cDNA using High capacity cRNA Reverse Transcription Kit, and the cDNA from different groups was subject to digital PCR reaction. Refering to the QX200 Droplet Reader and QuantaSoft Software manual for the protocols, the results were analyzed using QuantaSoft software.
# as §1, with “method:” for “method: the”, “total” for “total cellular”, “method,” for “methods,”, “subjected” for “subject”, “Refer” for “Refering”, “protocols;” for “protocols,”
# (§2) 2.2 Experimental method: Total RNA was collected and extracted by TRIzol lysis buffer according to the above method, and reverse transcribed to cDNA using TaqMan™ MicroRNA Reverse Transcription KitHigh, and the cDNA from different groups was subjected to digital PCR reaction. Refer to the QX200 Droplet Reader and QuantaSoft Software manual for the protocols; the results were analyzed using QuantaSoft software.
# as §2, with “reversed” for “reverse transcribed”, “High capacity cRNA” for “TaqMan™ MicroRNA”, “Kit,” for “KitHigh,”
SMILES,abundance of sRNA of different sequences in the cells (Taqman probe) ([1]; reverse evaporation method),delivery of HJT-sRNA-m7 double-stranded RNA into A549 cells (real-time PCR) [1],delivery of HJT-sRNA-m7 single-stranded RNA into A549 cells (real-time PCR) ([1]; boiling method),delivery of HJT-sRNA-m7 dsRNA into A549 cells (ddPCR) (A549 cells),delivery effect relative to that of RNAiMAX (real-time PCR) ([1]; reverse evaporation method),delivery effect relative to that of RNAiMAX (real-time PCR) ([1]; boiling method)
"CCCCC/C=C\C/C=C\CCCCCCCC(=O)O[C@H](COC(=O)CCCCCCCCCCCCCCCCC)COP(=O)([O-])OCC[N+](C)(C)C [No. 11, trimethyl(2-{[(2R)-2-[(9Z, 12Z)-octadeca-9,12-dienoyloxy]-3-(octadecanoyloxy)propyl-phosphonato]oxy}ethyl) azanium]",could effectively facilitate nucleic acid molecules of different sequences entry into various cells,,,,,
"CCCCC/C=C\C/C=C\CCCCCCCC(=O)O[C@H](COC(=O)CCCCCCCCCCCCCCC)COP(=O)([O-])OCC[N+](C)(C)C [No. 12, (2-{[(2R)-3-(hexadecanoyloxy)-2-[(9Z,12Z)-octadeca-9,12-dienoyloxy]propylphosphonato]oxy}ethyl) trimethylazanium]",could effectively facilitate nucleic acid molecules of different sequences entry into various cells,,,,,
"CCCCCC/C=C\CCCCCCCC(=O)O[C@H](COC(=O)CCCCCCCCCCCCCCC)COP(=O)(O)OCCN [No. 38, (2-aminoethoxy) [(2R)-2-[(9Z)-hexadec-9-enoyloxy]-3-(hexadecanoyloxy)propoxy] phosphinic acid]",,delivered double-stranded RNA into A549 and MRC-5 cells,the efficiency of delivery was much higher than that of RNAiMAX,could effectively deliver HJT-sRNA-m7 dsRNA into A549 cells,,
"CCCCCCCC/C=C\CCCCCCCCCCCC(=O)O[C@H](COC(=O)CCCCCCCCCCCCCCC)COP(=O)(O)OCCN [No. 40, (2-aminoethoxy) [(2R)-2-[(13Z)-docos-13-enoyloxy]-3-(hexadecanoyloxy)propoxy] phosphinic acid]",,delivered double-stranded RNA into A549 cells,,could effectively deliver HJT-sRNA-m7 dsRNA into A549 cells,½,
"CCCCCCCCCCCCCCCCCCC[C@@H](O)[C@@H](N)CO [No. 41, Sphinganine (d22:0)]",,delivered HJT-sRNA-m7 double-stranded RNA into A549 cells,delivered HJT-sRNA-m7 single-stranded RNA into A549 and MRC-5 cells,could effectively deliver HJT-sRNA-m7 dsRNA into A549 cells; also recorded: the boiling method had better effects than reverse evaporation method,significantly higher than that of RNAiMAX,about twice
"CCCCCCCC/C=C\CCCCCCCCCCCCCC(=O)O[C@H](COC(=O)CCCCCCCCCCCCCC)COP(=O)(O)OCCN [No. 64, 1-pentadecanoyl-2-nervonoyl-sn-glycero-3-phospho-ethanolamine]",,delivered HJT-sRNA-m7 double-stranded RNA into A549 cells,,,,about 3 times that of RNAiMAX
